Reference: patent publication US8309586B2, “Glucokinase activators and pharmaceutical compositions containing the same as an active ingredient” (LG Life Sciences Ltd., priority 2007, dated 2012)

Tests used:
[1] = test system: Glucokinase known as hexokinase IV (human GK isoform 1, pancreas form and human GK isoform 2, liver form); assay: Glucokinase enzymatic activity assay (G6PDH-coupled, NADH absorbance at 340 nm); assay type: biochemical; details: 5 mM glucose, 1 mM ATP, 37 nM GK, 10 min at room temperature
Summary of the method: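 His-tagged human GK isoform 1 (pancreas) or 2 (liver), E. coli-expressed and Ni-purified, 37 nM, with 5 mM glucose, 1 mM ATP, 1 mM NAD and G6PDH in 25 mM Hepes/KCl, 2 mM MgCl2, 1 mM DTT. Ran 10 min at room temperature, read as NADH at 340 nm. AC1.5 is the compound concentration giving 1.5-fold activity.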

male C57BL/6 mice = assay: Blood glucose lowering abilities after single oral administration in male C57BL/6 mouse; assay type: in vivo; details: 30 mg/kg single oral dose, fed ad libitum
Procedure: The glucokinase activators according to the present invention were orally administered in a single dose in the amount of 30 mg/kg body weight to male C57BL/6 mice for 24 h. The media were selected depending on their solubilities from distilled water, pH 1.2 HCl buffer solution, 0.5% methyl cellulose distilled water solution, 10% Gelucire/pH 1.2 HCl buffer solution (1/1). The glucokinase activators were dissolved in the selected media to the medium volume of 0.1 ml/10 g body weight on the basis of the body weight measured on the day of experiment.
Blood glucose was measured by cutting the tail vein before 1 h (time=−1) from the measurement of blood glucose, collecting blood from the tail vein at immediately before the administration of the glucokinase activator (time=0), and at 1, 2, 4, 8, 12, 24 h after administration, loading on the automatic glucometer (Accu-Chek® Active, Roche, USA), dropping 5 μl of the blood to a yellow pad of the Accu-Chek® Active glucose strip, and recording the measured value.
Mice involved in the experiment were divided into groups (n=10, in the case of media group n=4) on one day before the experiment so that each group has uniform average and standard deviation for blood glucose after 4 hour fasting. Mice were fed ad libitum.
The blood glucose lowering abilities in % of the representative compounds with respect to the 100% of media control were shown in the following Table 2.

Row | Structure (SMILES) | AC1.5 (the compound concentration at which the enzymatic activity is increased by 1.5 times) [1] [nM] | Hypoglycemic ability (% medium): blood glucose AUC for 24 h with respect to 100% of media control (male C57BL/6 mice; medium: distilled water) [%] | Hypoglycemic ability (% medium): blood glucose AUC for 24 h with respect to 100% of media control (male C57BL/6 mice; medium: 0.5% methyl cellulose distilled water solution) [%]
1 | O=C(O)C[C@@H]1CSC(c2cc3cc(Cl)cc(NC4CCCC4)c3[nH]2)=N1 [Example 27, [(R)-2-(5-chloro-7-cyclopentylamino-1H-indol-2-yl)-4,5-dihydro-thiazol-4-yl]acetic acid] | 4 | 75 | 
2 | CCOC(=O)C[C@@H]1CSC(c2cc3cc(F)cc(NC4CCCC4)c3[nH]2)=N1 [Example 38, [(R)-2-(7-cyclopentylamino-5-fluoro-1H-indol-2-yl)-4,5-dihydro-thiazol-4-yl]acetic acid ethyl ester] | 18 |  | 71
3 | O=C(O)C[C@@H]1CSC(c2cc3cccc(NC4CCCC4)c3[nH]2)=N1 [Example 42, [(R)-2-(7-cyclopentylamino-1H-indol-2-yl)-4,5-dihydro-thiazol-4-yl]acetic acid] |  | 57 | 
4 | CCOc1cc(NC2CCCC2)c2[nH]c(C3=N[C@H](CC(=O)O)CS3)cc2c1 [Example 52, [(R)-2-(7-cyclopentylamino-5-ethoxy-1H-indol-2-yl)-4,5-dihydro-thiazol-4-yl]acetic acid] | 20 | 62 | 
5 | O=C(O)C[C@@H]1CSC(c2cc3cc(Oc4ccccc4)cc(NC4CCCC4)c3[nH]2)=N1 [Example 54, [(R)-2-(7-cyclopentylamino-5-phenoxy-1H-indol-2-yl)-4,5-dihydro-thiazol-4-yl]-acetic acid] | 18 | 52 | 
6 | O=C(O)C[C@@H]1CSC(c2cc3cccc(Oc4ccccc4)c3[nH]2)=N1 [Example 174, [(R)-2-(7-phenoxy-1H-indol-2-yl)-4,5-dihydro-thiazol-4-yl]-acetic acid] |  | 51 | 

The next lines start with results.

Row | AC1.5 (the compound concentration at which the enzymatic activity is increased by 1.5 times) [1] [nM] | Structure (SMILES) | Hypoglycemic ability (% medium): blood glucose AUC for 24 h with respect to 100% of media control (male C57BL/6 mice; medium: distilled water) [%] | Hypoglycemic ability (% medium): blood glucose AUC for 24 h with respect to 100% of media control (male C57BL/6 mice; medium: 0.5% methyl cellulose distilled water solution) [%]
7 | 11 | Cc1cc(NC2CCCC2)c2[nH]c(C3=N[C@H](CC(=O)O)CS3)cc2c1 [Example 61, [(R)-2-(7-cyclopentylamino-5-methyl-1H-indol-2-yl)-4,5-dihydro-thiazol-4-yl]-acetic acid] | 54 | 
8 | 5 | Clc1cc(NC2CCCC2)c2[nH]c(C3=N[C@H](CCN4CCNCC4)CS3)cc2c1 [Example 96, {5-chloro-2-[(R)-4-(2-piperazin-1-yl-ethyl)-4,5-dihydro-thiazol-2-yl]-1H-indol-7-yl}-cyclopentyl-amine] | 81 | 
9 | 5 | O=C(CO)N1CCN(CC[C@@H]2CSC(c3cc4cc(Cl)cc(NC5CCCC5)c4[nH]3)=N2)CC1 [Example 99, 1-(4-{2-[(R)-2-(5-chloro-7-cyclopentylamino-1H-indol-2-yl)-4,5-dihydro-thiazol-4-yl]-ethyl}-piperazin-1-yl)-2-hydroxy-ethanone] | 72 | 
10 | 16 | Cc1cc(NC2CCCC2)c2[nH]c(C3=N[C@H](CCC(=O)O)CS3)cc2c1 [Example 158, 3-[(R)-2-(7-cyclopentylamino-5-methyl-1H-indol-2-yl)-4,5-dihydro-thiazol-4-yl]-propionic acid] | 66 | 
11 | 17 | O=C(O)CC[C@@H]1CSC(c2cc3cc(Oc4ccccc4)cc(NC4CCCC4)c3[nH]2)=N1 [Example 159, 3-[(R)-2-(7-cyclopentylamino-5-phenoxy-1H-indol-2-yl)-4,5-dihydro-thiazol-4-yl]-propionic acid] | 63 | 
12 | 25 | O=C(O)CC[C@@H]1CSC(c2cc3cccc(NC4CCCC4)c3[nH]2)=N1 [Example 164, 3-[(R)-2-(7-cyclopentylamino-1H-indol-2-yl)-4,5-dihydro-thiazol-4-yl]-propionic acid] | 73 | 
13 | 28 | CCOc1cc(NC2CCCC2)c2[nH]c(C3=N[C@H](CCC(=O)O)CS3)cc2c1 [Example 167, 3-[(R)-2-(7-cyclopentylamino-5-ethoxy-1H-indol-2-yl)-4,5-dihydro-thiazol-4-yl]-propionic acid] | 64 | 
